Measurements published in paper PMC3674157 (European journal of medicinal chemistry, 2013).

What was measured:
Type in all cases: cell-based
[1] = test system: HeLa human cervical carcinoma cells; assay: High-content analysis of mitotic arrest in HeLa cells; conditions: for MDEC Nuclear condensation / MDEC Tubulin intensity: HCS assay, minimum detectable effective concentration; for mitotic arrest phenotype (immunostaining of α-tubulin, phosphohistone H3, Hoechst 33342): 1a 62 nM, 2c 940 nM, 3a 470 nM
[2] = test system: MDA-MB-231 human breast cancer cells; assay: Wound healing; conditions: three different concentrations
[3] = test system: REH human acute lymphoblastic leukemia cells; assay: REH cytotoxicity, MTT assay; conditions: REH and JURKAT versus NIH3T3, HUVEC

Structure (SMILES): COc1ccc(/C=C/C(=O)c2ccc3c(c2)OCO3)c(OC)c1OC [Compound 2d, (2E)-1-(1’,3’-benzodioxol-5-yl)-3-(2,3,4-trimethoxyphenyl)-2-propen-1-one]
- MDEC Nuclear condensation [1]: >50,000 nM
- MDEC Tubulin intensity [1]: >50,000 nM

Structure (SMILES): COc1cc2c(c(OC)c1OC)-c1ccc(OC)c(=O)cc1[C@@H](NC(C)=O)CC2 [Compound 1a, colchicine, reference compound]
- mitotic arrest phenotype (immunostaining of α-tubulin, phosphohistone H3, Hoechst 33342) [1]: tubulin disorganization, increased number of phosphohistone H3-positive cells, chromatin condensation, and nuclear fragmentation
- MDEC Nuclear condensation [1]: 12.0 ± 4.8 nM
- MDEC Tubulin intensity [1]: 10.2 ± 3.8 nM
- cell migration in the scratch wound assay [2]: significantly inhibited cell migration

Structure (SMILES): COc1cc(C(=O)/C=C/c2ccc3ccccc3c2)cc(OC)c1OC [Compound 2c, (2E)-1-(3’,4’,5’-trimethoxyphenyl)-3-(2-naphthyl)-2-propen-1-one]
- selectivity, nontransformed cells (NIH3T3, HUVEC, PBMC) compared with the two human tumor cell lines [3]: 45 – 100 fold
- mitotic arrest phenotype (immunostaining of α-tubulin, phosphohistone H3, Hoechst 33342) [1]: tubulin disorganization, increased number of phosphohistone H3-positive cells, chromatin condensation, and nuclear fragmentation
- MDEC Nuclear condensation [1]: 317 ± 23 nM
- MDEC Tubulin intensity [1]: 283 ± 52 nM
- cell migration in the scratch wound assay [2]: significantly inhibited cell migration

Structure (SMILES): COc1cc(C(=O)/C=C/c2ccc3ccccc3c2)ccc1O [Compound 2b, (2e)-3-(2-naphthyl)-1-(3'-methoxy-4'-hydroxy-phenyl)-2-propen-1-one]
- MDEC Nuclear condensation [1]: 2,200 ± 700 nM
- MDEC Tubulin intensity [1]: 1,100 ± 200 nM

Structure (SMILES): O=C(/C=C/c1ccccc1)c1ccccc1 [Compound 2a, 1,3-diphenylprop-2-en-1-one]
- MDEC Nuclear condensation [1]: >50,000 nM
- MDEC Tubulin intensity [1]: >50,000 nM

Structure (SMILES): COc1cc(C(=O)/C=C/c2ccc(N(C)C)cc2)cc(OC)c1OC [Compound 3a, (2E,Z)-1-(3’,4’,5’-trimethoxyphenyl)-3-(4-dimethylaminophenyl)-2-propen-1-one]
- selectivity, nontransformed cells (NIH3T3, HUVEC, PBMC) compared with the two human tumor cell lines [3]: 45 – 100 fold
- mitotic arrest phenotype (immunostaining of α-tubulin, phosphohistone H3, Hoechst 33342) [1]: tubulin disorganization, increased number of phosphohistone H3-positive cells, chromatin condensation, and nuclear fragmentation
- MDEC Nuclear condensation [1]: 217 ± 67 nM
- MDEC Tubulin intensity [1]: 139 ± 13 nM
- cell migration in the scratch wound assay [2]: significantly inhibited cell migration
